Assay results reported in PMC11724075, “Small-molecule-induced ERBB4 activation to treat heart failure” (Nature Communications, 2025).
“And” between values parts separate entries of the source, which are not always exact repeats. Equal values may be shown once.

How the values were obtained:
Erbb4-null mice [1] = assay: AngII-treated Erbb4-null mice, echocardiography; format: in vivo, mouse; settings: AngII/EF-1
Description: (§1) Floxed Erbb4 mice (Erbb4^f/f; C57BL/6N; 129-Erbb4tm1Fej/Mmucd, MMRRC, #010439-UCD) were crossed with CAGGCre-ER^TM mice (Jackson Laboratory, 004682) containing the Tg(CAG-cre/Esr1*)5Amc transgene that expresses Cre recombinase under the control of a chicken beta actin promoter/enhancer coupled to the human cytomegalovirus immediate-early gene enhancer, resulting in expression of tamoxifen-inducible Cre-ERT in most cell types. To induce Cre recombinase-mediated deletion of Erbb4, eleven-week-old female and male iCAGGCre-ER^TM/Erbb4^f/f mice were intraperitoneally injected with tamoxifen (Merck, T5648; 10 mg/kg; in corn oil) daily for 5 consecutive days.
Echocardiography was performed using the Vevo F2-LAZRX (FUJIFILM VisualSonics) and UHF57x probe. Mice were anesthetized with 1.5% isoflurane (Alvira, BE-V512222). Parasternal long-axis B-mode images and M-mode images were obtained and analyzed using VevoLAB software (FUJIFILM VisualSonics, Version 5.7.1). For the AngII experiments, measurements were obtained through analysis of the short-axis M-mode. For the MI experiments, measurements were obtained through analysis of the parasternal long-axis B-mode, of which the area and end-volume of the left ventricular cavity in diastole and systole were determined by tracing the endocardial border. Acquisitions, measurements and analyses were performed blinded.
Supplementary Table 2. Echocardiographic parameters. Echocardiographic parameters obtained through the analysis of the M-mode short-axis views. (a) Male and (b) female wild-type mice treated […]
mice in EF-1 group). (c) Male wild-type mice treated with AngII and NA-1 (n=5 male mice in Ctrl and AngII/Veh group, n=4 male mice in AngII/NA -1 group). (d) Comparison between wild-type and Erbb4-null mice (n=10 male and female wild -type mice and n=6 male and female Erbb4-null mice). (e) Male […]
Echocardiographic parameters were measured weekly
(indicated by ‘T’). All data are presented as mean (value of individual mice) ± SD, two-tailed unpaired […]
1 groups. Source data are provided as a Source Data file. AngII, angiotensin II; ANOVA, analysis of variance; Ctrl, control; DOX, doxorubicin; EF, ejection fraction; ERBB4, erythroblastic leukemia viral oncogene homolog 4; FS, fractional shortening; IVSd, interventricular septum thickness in diastole; IVSs, interventricular septum thickness in systole; LVIDd, left ventricular internal diameter in diastole; LVIDs, left ventricular internal diameter in systole; LVPWd, left ventricular posterior wall thickness in diastole; LVPWs, left ventricular posterior wall thickness in systole; MI, myocardial infarction; NA, non-activating pharmacophore-containing compound; SD, standard variation; Veh, vehicle.

[2] = system: mouse model of DOX-induced acute cardiac toxicity; assay: Acute high-dose DOX-induced cardiotoxicity, cTnI ELISA, wild type mice; format: in vivo; design: In vivo DOX experiment in female wild type mice with EF-1 (cTnI) / In vivo DOX experiment in fmale wild type mice with EF-1 (cTnI): unit not given here
Method: (§2) DOX (20 mg/kg; Pfizer, 4222) was administered intraperitoneally once on day 4 to induce cardiotoxicity. On day 7, mice were euthanized, serum samples were collected via the retrobulbar sinus and hearts were excised.
Serum samples were centrifuged for 15 min (1000 × g) at 4 °C and analyzed using a mouse cardiac Troponin I Type 3 ELISA kit (Novus Biologicals, NBP3–00456), according to the manufacturer’s instructions. Briefly, a 96-well microplate was coated with an anti-mouse TNNI3/cTnI primary antibody (Capture Antibody Solution). Standard solution or samples (100 μL) were added to the plate and incubated for 90 min at 37 °C. A biotinylated anti-mouse TNNI3/cTnI detection antibody was added, and the plate was incubated for 1 h at 37 °C followed by 3 washes with Wash Buffer. An avidin–horseradish peroxidase conjugate (Detection Antibody Solution) was then added, and the plate was incubated once more for 30 min at 37 °C. After 3 washes with Wash Buffer, Substrate Reagent was added. Following incubation for 15 min at 37 °C, the enzymatic reaction was terminated by the addition of Stop Solution. Sample optical densities at 450 nm were converted to […] concentrations of mouse TNNI3/cTnI using a calibration curve.

Erbb4-null mice [3] = assay: Acute high-dose DOX-induced cardiotoxicity, cTnI ELISA, female Erbb4-null mice; format: in vivo, mouse; design: In vivo DOX experiment in male+female Erbb4-null mice with EF-1 (cTnI): unit not given here
Method: as §2, §1
Serum samples were centrifuged for 15 min (1000 × g) at 4 °C and analyzed using a mouse cardiac Troponin I Type 3 ELISA kit (Novus Biologicals, NBP3–00456), according to the manufacturer’s instructions. Briefly, a 96-well microplate was coated with an anti-mouse TNNI3/cTnI primary antibody (Capture Antibody Solution). Standard solution or samples (100 μL) were added to the plate and incubated for 90 min at 37 °C. […]

[4] = Male and female Erbb4-null mice
[5] = male and female Erbb4-null mice, mean ± SD

For `O=C(NC1CC1)C(Sc1nc2ccccc2c(=O)n1C1CCCC1)c1ccccc1` (stereo not shown) [EF-1], the FS (Erbb4-null mice [1]; [4]) was 5.8 ± 3.5%, the IVSd (Erbb4-null mice [1]; [4]) was 1.0 ± 0.3 mm and the IVSs (Erbb4-null mice [1]; [4]) was 1.2 ± 0.5 mm. It also gave an LVIDd (Erbb4-null mice [1]; [4]) of 5.8 ± 0.3 mm, an LVIDs (Erbb4-null mice [1]; [4]) of 5.5 ± 0.5 mm and an LVPWd (Erbb4-null mice [1]; [4]) of 1.0 ± 0.4 mm. It also gave an LVPWs (Erbb4-null mice [1]; [4]) of 1.1 ± 0.4 mm, an FS (Erbb4-null mice [1]; [5]) of 5.8 ± 3.5% and an IVSd (Erbb4-null mice [1]; [5]) of 1.0 ± 0.3 mm. For the same molecule, the IVSs (Erbb4-null mice [1]; [5]) was 1.2 ± 0.5 mm, the LVIDd (Erbb4-null mice [1]; [5]) was 5.8 ± 0.3 mm and the LVIDs (Erbb4-null mice [1]; [5]) was 5.5 ± 0.5 mm. The LVPWd (Erbb4-null mice [1]; [5]) was 1.0 ± 0.4 mm, the LVPWs (Erbb4-null mice [1]; [5]) was 1.1 ± 0.4 mm and the “In vivo DOX experiment in female wild type mice with EF-1 (cTnI)” value ([2]; female wild type mice, DOX/EF-1 group, individual animals, Fig. 6b) was 8.09 and 3.543 and 6.879 and 1.657 and 7.427 and 2.8057 and 6.224 and 3.861. For the same molecule, the “effect on DOX-induced increase in circulating cTnI plasma levels (in words)” value ([2]; female wild type mice, EF-1 2 mg/kg, 7 days, DOX 20 mg/kg IP day 4) was “significantly prevented the DOX-induced increase in circulating cTnI plasma levels”, the “In vivo DOX experiment in fmale wild type mice with EF-1 (cTnI)” value ([2]; fmale wild type mice, DOX/EF-1 group, individual animals, Fig. 6c) was 273.659 and 148.181 and 198.844 and 244.235 and 228.218 and 232.739 and 226.672 and 236.453 and 259.198 and the “effect on DOX-induced increase in cTnI plasma levels (in words)” value (Erbb4-null mice [3]; female Erbb4-null mice) was “did not prevent the increase in cTnI plasma levels”. For the same molecule, the “In vivo DOX experiment in male+female Erbb4-null mice with EF-1 (cTnI)” value (Erbb4-null mice [3]; male+female Erbb4-null mice, DOX/EF-1 group, individual animals, Fig. 6d) was 3.884 and 54.574 and 87.9141 and 7.084 and 54.129 and 15.8453 and 39.5225 and 62.9332.
